According to patent US20230372365A1, “METHODS OF TREATING FIBROMYALGIA WITH NEUROACTIVE STEROIDS” (priority 2020, published 2023):

Assays:
[1] = system: GABAA receptor subtypes; assay: FLIPR calcium flux, all 18 subtypes taken together; type: cell-based; conditions: 18 subtypes tested
Experimental: (§1) Cells expressing the indicated GABAA receptor subtype were exposed to gamma-aminobutyric acid in the presence of varying concentrations of either CV-10155 or SPNC-019, calcium flux was measured using a fluorometric imaging plate reader (FLIPR), and EC50 values for compounds were determined.
The results further indicate that the isomeric purity of compositions containing compounds of Formula (I) greatly impacts the utility of such compositions as therapeutic agents.

[2] = target: picrotoxin binding site of GABAA receptors; conditions: membranes from cortices of rat brains; read-out: IC50 in the TBPS displacement assay; cited from earlier work
[3] = target: T1, α4β3δ GABAA receptor (Homo sapiens, UniProt O14764+P28472+P48169); assay: FLIPR calcium flux, modulation of GABA response; type: cell-based; parameters: expressed in transfected cells; conditions: comparison of Example 1 data
T1 sequence (P48169 36-554): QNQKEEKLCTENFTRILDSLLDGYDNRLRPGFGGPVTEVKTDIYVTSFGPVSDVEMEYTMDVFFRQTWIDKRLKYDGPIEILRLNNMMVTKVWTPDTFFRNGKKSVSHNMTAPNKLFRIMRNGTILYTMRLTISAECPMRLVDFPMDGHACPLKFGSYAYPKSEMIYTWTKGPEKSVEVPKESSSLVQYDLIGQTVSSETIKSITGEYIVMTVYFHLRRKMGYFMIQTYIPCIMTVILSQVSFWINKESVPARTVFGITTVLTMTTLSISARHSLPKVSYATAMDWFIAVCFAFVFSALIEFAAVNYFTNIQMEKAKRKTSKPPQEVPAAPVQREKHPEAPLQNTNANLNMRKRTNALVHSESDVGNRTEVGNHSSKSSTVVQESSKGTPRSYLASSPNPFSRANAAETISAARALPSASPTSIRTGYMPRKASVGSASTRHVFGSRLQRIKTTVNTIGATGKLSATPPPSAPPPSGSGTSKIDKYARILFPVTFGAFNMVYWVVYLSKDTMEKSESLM
T1 sequence (P28472 26-473): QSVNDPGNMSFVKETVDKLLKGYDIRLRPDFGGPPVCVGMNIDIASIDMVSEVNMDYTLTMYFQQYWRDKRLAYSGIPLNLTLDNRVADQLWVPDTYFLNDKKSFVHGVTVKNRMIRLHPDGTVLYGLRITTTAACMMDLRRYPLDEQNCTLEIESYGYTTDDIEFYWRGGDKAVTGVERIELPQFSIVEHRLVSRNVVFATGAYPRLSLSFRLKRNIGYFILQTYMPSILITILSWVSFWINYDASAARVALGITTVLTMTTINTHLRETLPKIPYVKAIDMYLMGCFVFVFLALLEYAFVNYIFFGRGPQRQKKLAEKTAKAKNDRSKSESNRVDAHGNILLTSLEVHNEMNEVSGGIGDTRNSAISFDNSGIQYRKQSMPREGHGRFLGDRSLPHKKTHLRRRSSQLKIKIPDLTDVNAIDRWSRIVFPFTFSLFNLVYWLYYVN
T1 sequence (O14764 25-452): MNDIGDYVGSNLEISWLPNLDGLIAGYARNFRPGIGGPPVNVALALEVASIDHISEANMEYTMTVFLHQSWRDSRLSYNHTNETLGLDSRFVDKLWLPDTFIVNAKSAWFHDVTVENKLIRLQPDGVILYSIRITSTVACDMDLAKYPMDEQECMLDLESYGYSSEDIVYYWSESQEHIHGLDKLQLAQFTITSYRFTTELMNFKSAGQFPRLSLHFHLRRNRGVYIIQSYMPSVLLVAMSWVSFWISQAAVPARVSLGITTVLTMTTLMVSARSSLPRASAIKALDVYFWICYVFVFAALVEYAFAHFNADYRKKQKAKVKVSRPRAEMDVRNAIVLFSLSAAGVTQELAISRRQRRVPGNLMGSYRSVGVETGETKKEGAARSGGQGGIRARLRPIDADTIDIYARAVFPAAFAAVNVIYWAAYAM
Experimental: as §1

[4] = target: T2, α1β2γ2 GABAA receptors (Homo sapiens, UniProt P14867+P18507+P47870); conditions: 10 μM steroid, GABA 2 μM (EC20), LTK cells; cited from earlier work
T2 construct: expressed in transfected cells; host or cells: LTK cells, stably transfected
T2 sequence (P14867 28-456): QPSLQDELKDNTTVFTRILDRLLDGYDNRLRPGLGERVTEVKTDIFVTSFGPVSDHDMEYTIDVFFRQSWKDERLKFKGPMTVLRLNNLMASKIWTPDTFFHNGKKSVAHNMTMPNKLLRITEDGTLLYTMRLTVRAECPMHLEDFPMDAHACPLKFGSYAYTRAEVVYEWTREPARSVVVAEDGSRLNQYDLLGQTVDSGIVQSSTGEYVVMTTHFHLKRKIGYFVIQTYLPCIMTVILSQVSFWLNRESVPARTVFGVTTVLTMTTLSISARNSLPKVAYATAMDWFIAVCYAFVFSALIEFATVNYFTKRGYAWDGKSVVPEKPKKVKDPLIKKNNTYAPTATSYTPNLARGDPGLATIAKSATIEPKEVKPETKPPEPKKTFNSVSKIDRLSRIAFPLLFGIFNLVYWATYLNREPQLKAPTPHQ
T2 sequence (P47870 25-512 limits assumed): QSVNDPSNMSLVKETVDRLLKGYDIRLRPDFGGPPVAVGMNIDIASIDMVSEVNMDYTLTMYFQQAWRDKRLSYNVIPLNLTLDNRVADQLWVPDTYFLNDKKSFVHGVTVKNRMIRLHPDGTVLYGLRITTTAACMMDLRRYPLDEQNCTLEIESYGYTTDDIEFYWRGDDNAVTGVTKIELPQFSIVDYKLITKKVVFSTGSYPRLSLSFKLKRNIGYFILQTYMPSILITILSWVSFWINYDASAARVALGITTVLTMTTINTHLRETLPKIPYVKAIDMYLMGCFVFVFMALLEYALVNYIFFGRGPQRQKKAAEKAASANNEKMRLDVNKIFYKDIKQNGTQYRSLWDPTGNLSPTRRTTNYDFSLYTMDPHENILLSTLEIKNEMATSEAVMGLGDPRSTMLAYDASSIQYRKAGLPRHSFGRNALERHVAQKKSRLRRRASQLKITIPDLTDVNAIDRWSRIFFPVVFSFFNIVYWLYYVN
T2 sequence (P18507 40-475): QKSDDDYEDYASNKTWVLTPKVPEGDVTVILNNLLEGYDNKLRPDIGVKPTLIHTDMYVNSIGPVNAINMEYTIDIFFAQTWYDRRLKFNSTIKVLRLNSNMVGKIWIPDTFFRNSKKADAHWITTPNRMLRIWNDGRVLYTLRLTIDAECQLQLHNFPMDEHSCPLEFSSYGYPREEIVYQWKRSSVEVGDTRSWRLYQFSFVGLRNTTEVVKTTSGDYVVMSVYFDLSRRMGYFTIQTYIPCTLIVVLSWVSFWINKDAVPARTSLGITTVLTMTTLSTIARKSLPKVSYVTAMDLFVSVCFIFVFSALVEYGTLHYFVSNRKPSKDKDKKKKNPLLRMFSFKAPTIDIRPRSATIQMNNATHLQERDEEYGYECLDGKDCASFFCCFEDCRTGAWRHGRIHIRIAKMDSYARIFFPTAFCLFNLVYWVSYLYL

[5] = target: T1, α4β3δ GABAA receptor; parameters: expressed in transfected cells; host or cells: CHO cells, transiently transfected; conditions: 10 μM steroid, GABA 2 μM (EC20), CHO cells; cited from earlier work

| Compound | modulating activity across the GABAA receptor subtypes tested [1] | IC50 [2] | other results |
| --- | --- | --- | --- |
| C[C@]1(O)CC[C@@]2(C)[C@@H](CC[C@@H]3[C@@H]2CC[C@]2(C)[C@@H](C(=O)Cn4cc(C#N)cn4)CC[C@@H]32)C1 [SPNC-019] | no modulating activity in 15 of the 18 GABAA receptor subtypes tested |  |  |
| C[C@@]1(O)CC[C@@]2(C)[C@H](CC[C@@H]3[C@@H]2CC[C@]2(C)[C@@H](C(=O)Cn4cc(C#N)cn4)CC[C@@H]32)C1 [Compound 10] |  | < 10 nM |  |
| C[C@@]1(O)CC[C@@]2(C)[C@@H](CC[C@@H]3[C@@H]2CC[C@]2(C)[C@@H](C(=O)Cn4cc(C#N)cn4)CC[C@@H]32)C1 [CV-10155, 1-[2-[(3R,5S,8R,9S,10S,13S,14S,17S)-3-hydroxy-3,10,13-trimethyl-1,2,4,5,6,7,8,9,11,12,14,15,16,17-tetradecahydrocyclopenta[a]phenanthren-17-yl]-2-oxoethyl]pyrazole-4-carbonitrile] | some level of positive allosteric modulating activity in all of the GABAA receptor subtypes tested |  | preferential modulation of α4β3δ compared to α1β2γ2 GABAA receptors [3]: preferentially modulate; preferential modulation of α4β3δ compared to α1β2γ2 GABAA receptors ([3]; listed as Formula (I)): substantially more active |
| C[C@@]1(O)CC[C@@]2(C)[C@@H](CC[C@@H]3[C@@H]2CC[C@]2(C)[C@@H](C(=O)Cn4ccc(C#N)n4)CC[C@@H]32)C1 [Compound 121] |  | 10 to 50 nM | efficacy (relative potentiation of GABA-mediated conductance) [4]: > 500%; efficacy (relative potentiation of GABA-mediated conductance) [5]: > 500% |
